Data taken from US20240384268A1, “Oligonucleotides” (Hudson Institute of Medical Research, priority 2021, published 2024).
In the oligonucleotide strings, read from the 5' end, every base follows the letter of its sugar. An asterisk marks phosphorothioate; unmarked linkages are phosphodiester. Other units and linkages are bracketed, terminal groups are in braces. A string of capitals states the bases alone. d = 2'-deoxy (DNA); m = 2'-O-methyl

Target: T1, human TLR7 (Homo sapiens, UniProt Q9NYK1)
T1 construct: HA; host or cells: 293XL-hTLR7-HA (HEK293)
T1 sequence (Q9NYK1 27-1049): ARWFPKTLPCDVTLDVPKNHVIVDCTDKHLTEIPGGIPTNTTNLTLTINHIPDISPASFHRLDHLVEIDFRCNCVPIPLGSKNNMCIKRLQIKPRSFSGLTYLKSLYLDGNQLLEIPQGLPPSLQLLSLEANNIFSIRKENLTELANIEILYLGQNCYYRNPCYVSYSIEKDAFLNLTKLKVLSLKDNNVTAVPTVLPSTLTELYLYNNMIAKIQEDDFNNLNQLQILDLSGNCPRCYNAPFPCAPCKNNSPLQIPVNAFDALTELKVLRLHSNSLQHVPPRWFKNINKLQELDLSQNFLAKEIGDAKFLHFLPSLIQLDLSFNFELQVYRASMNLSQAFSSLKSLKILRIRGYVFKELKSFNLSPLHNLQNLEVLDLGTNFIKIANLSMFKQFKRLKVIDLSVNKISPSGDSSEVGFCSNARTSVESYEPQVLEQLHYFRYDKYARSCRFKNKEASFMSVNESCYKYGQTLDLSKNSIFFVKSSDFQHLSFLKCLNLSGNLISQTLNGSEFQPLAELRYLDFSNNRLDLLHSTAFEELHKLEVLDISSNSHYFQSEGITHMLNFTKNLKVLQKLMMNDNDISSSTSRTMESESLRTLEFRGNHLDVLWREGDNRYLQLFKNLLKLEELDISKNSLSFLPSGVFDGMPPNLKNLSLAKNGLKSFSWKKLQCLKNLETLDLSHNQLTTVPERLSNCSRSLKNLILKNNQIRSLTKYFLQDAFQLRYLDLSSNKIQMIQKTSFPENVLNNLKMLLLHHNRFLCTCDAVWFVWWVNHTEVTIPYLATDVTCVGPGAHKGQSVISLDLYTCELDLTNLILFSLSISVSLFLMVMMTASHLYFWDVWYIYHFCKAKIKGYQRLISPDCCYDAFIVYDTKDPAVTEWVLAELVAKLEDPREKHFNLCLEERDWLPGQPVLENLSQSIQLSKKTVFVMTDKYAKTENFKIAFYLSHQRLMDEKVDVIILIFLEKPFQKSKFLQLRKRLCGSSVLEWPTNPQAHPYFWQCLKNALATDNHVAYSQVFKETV
Assay: HEK-TLR7 NF-κB-luciferase reporter, R848 stimulation
Assay type: cell-based
Settings: for TLR7 100 nM (averaged NF-κB-Luciferase level relative to R848 condition): ASO 100 nM; for TLR7 100 nM (averaged NF-κB-Luciferase level relative to R848 condition) / TLR7 500 nM (averaged NF-κB-Luciferase level relative to R848 condition): relative to R848 only, given as fraction; for TLR7 500 nM (averaged NF-κB-Luciferase level relative to R848 condition): ASO 500 nM; for TLR7-100 nM: averaged NF-κB-Luciferase relative to R848: HEK-TLR7, 100 nM ASO, percentage of R848 without ASO (Alharbi et al., 2020)

Substance | TLR7 100 nM (averaged NF-κB-Luciferase level relative to R848 condition) | TLR7 500 nM (averaged NF-κB-Luciferase level relative to R848 condition) | TLR7-100 nM: averaged NF-κB-Luciferase relative to R848
TACTTTCCGAGGTGTC (antisense; LNA-modified, pattern not given here) [CAMSAP1-1739 LNA KL] | 0.738 | 0.451 | –
CCACTTGGCAGACCAT (antisense; LNA-modified, pattern not given here) [CTNN2B-1575 LNA V1] | 0.765 | 0.470 | –
mA*mG*mU*mC*mU*C*C*A*T*G*T*C*C*C*A*mG*mG*mC*mC*mU (mA*mG*mU*mC*mU*dC*dC*dA*dT*dG*dT*dC*dC*dC*dA*mG*mG*mC*mC*mU; antisense) [[CDKN2B-AS1]2232] | – | – | 35.77%
mA*mA*mA*mG*mC*A*G*T*C*T*C*C*A*T*G*mU*mC*mC*mC*mA (mA*mA*mA*mG*mC*dA*dG*dT*dC*dT*dC*dC*dA*dT*dG*mU*mC*mC*mC*mA; antisense) [[CDKN2B-AS1]2237] | – | – | 27.16%
TGACAAAGATTCACTG (antisense; LNA-modified, pattern not given here) [HPRT LNA-1353 KL] | 1.040 | 0.430 | –
mG*mC*mA*mG*mU*C*T*C*C*A*T*G*T*C*C*mC*mA*mG*mG*mC (GCAGUCTCCATGTCCCAGGC; antisense; sugars from the 5' end m5 d10 m5, all phosphorothioate, methylation of C not given here) [[CDKN2B-AS1]2234] | – | – | 20.30%
GAGGTCTTGGCTTCGT (antisense; LNA-modified, pattern not given here) [MB21D1-525 LNA V1] | 0.793 | 0.067 | –
TGCTCCTCGGTCTCCC (antisense; LNA-modified, pattern not given here) [CAMSAP1-1850 LNA V1] | 0.751 | 0.595 | –
GTGATGGCCTCCCATC (antisense; LNA-modified, pattern not given here) [HPRT LNA-333 V1] | 0.665 | 0.139 | –
CCTCCCATCTCCTTCA (antisense; LNA-modified, pattern not given here) [HPRT LNA-326 V1] | 0.758 | 0.843 | –
GGTCTTGGCTTCGTGG (antisense; LNA-modified, pattern not given here) [MB21D1-523 LNA V1] | 0.481 | 0.042 | –
GGAGGTCTTGGCTTCG (antisense; LNA-modified, pattern not given here) [MB21D1-526 LNA V1] | 0.503 | 0.119 | –
CTTGGCTTCGTGGAGC (antisense; LNA-modified, pattern not given here) [MB21D1-520 LNA V1] | 0.806 | 0.098 | –
TGGTGGCCACCCATCT (antisense; LNA-modified, pattern not given here) [CTNN2B-2479 LNA V1] | 0.957 | 0.393 | –
AGATTTCAGAGCAGCT (antisense; LNA-modified, pattern not given here) [EGFR-4885 LNA KL] | 0.438 | 0.021 | –
CATCCACCACGTCGTC (antisense; LNA-modified, pattern not given here) [EGFR-3266 LNA V1] | 0.741 | 0.353 | –
ATCTGGCAGCCCATCA (antisense; LNA-modified, pattern not given here) [CTNN2B-2516 LNA V1] | 0.663 | 0.279 | –

Substance | TLR7 100 nM (averaged NF-κB-Luciferase level relative to R848 condition) | TLR7 500 nM (averaged NF-κB-Luciferase level relative to R848 condition) | TLR7-100 nM: averaged NF-κB-Luciferase relative to R848
GCACACTTCGTACCCA (antisense; LNA-modified, pattern not given here) [CAMSAP1-4915 LNA V1] | 0.657 | 0.221 | –
ATGTGATGGCCTCCCA (antisense; LNA-modified, pattern not given here) [HPRT LNA-335 V1] | 0.499 | 0.128 | –
mA*mU*mU*mU*mC*C*A*C*A*T*G*C*C*C*A*mG*mU*mG*mU*mU (AUUUCCACATGCCCAGUGUU; antisense; sugars from the 5' end m5 d10 m5, all phosphorothioate, methylation of C not given here) [[CDKN2B-AS1]626] | – | – | 32.05%
GTCTTCATCGGCCCTG (antisense; LNA-modified, pattern not given here) [CAMSAP1-2113 LNA V1] | 0.641 | 0.119 | –
TCGTGGGGTCCTTTTC (antisense; LNA-modified, pattern not given here) [HPRT LNA-660 V1] | 0.540 | 0.318 | –
mG*mU*mC*mU*mC*C*A*T*G*T*C*C*C*A*G*mG*mC*mC*mU*mC (mG*mU*mC*mU*mC*dC*dA*dT*dG*dT*dC*dC*dC*dA*dG*mG*mC*mC*mU*mC) [[CDKN2B;AS1]2231] | – | – | 23.75%
TGTCTGGAAGCTTCCT (antisense; LNA-modified, pattern not given here) [CTNN2B-808 LNA V1] | 0.495 | 0.278 | –
GGCTCGGCTTGCCTAC (antisense; LNA-modified, pattern not given here) [CAMSAP1-5594 LNA V1] | 0.569 | 0.186 | –
ACTTCGTGGGGTCCTT (antisense; LNA-modified, pattern not given here) [HPRT LNA-663 V1] | 0.804 | 0.736 | –
CCAGCAGGTCAGCAAA (antisense; LNA-modified, pattern not given here) [HPRT LNA-388 KL] | 1.101 | 0.942 | –
mC*mA*mG*mU*mG*T*T*T*T*T*A*A*T*T*T*mU*mG*mU*mA*mG (mC*mA*mG*mU*mG*dT*dT*dT*dT*dT*dA*dA*dT*dT*dT*mU*mG*mU*mA*mG; antisense) [[CDKN2B-AS1]613] | – | – | 62.68%
ATGGCCTCCCATCTCC (antisense; LNA-modified, pattern not given here) [HPRT LNA-330 V1] | 0.550 | 0.117 | –
TGGTCCACAACCCCTT (antisense; LNA-modified, pattern not given here) [MB21D1-697 LNA V1] | 1.008 | 0.545 | –
GTGATCTTGACATGCT (antisense; LNA-modified, pattern not given here) [EGFR-2790 LNA KL] | 0.438 | 0.060 | –
GTCTCTGGAGCTTCCT (antisense; LNA-modified, pattern not given here) [CAMSAP1-2456 LNA V1] | 0.477 | 0.084 | –
TTCAGGCGCTGCCTTG (antisense; LNA-modified, pattern not given here) [CAMSAP1-2709 LNA V1] | 0.642 | 0.181 | –
CCACATCCTGTGGCTC (antisense; LNA-modified, pattern not given here) [CAMSAP1-2906 LNA V1] | 0.789 | 0.363 | –
